The IC50 is the midpoint of a concentration-inhibition curve. A word on the solubility: it is the dissolved amount per volume that the medium holds. High values mean a readily soluble substance, low ones a poorly soluble substance.

The values that follow come from patent publication EP3763715A1, “HARRINGTONINES SALTS, IN PARTICULAR RETINOATES, THEIR PROCESS OF PREPARATION AND THEIR USES IN THE TREATMENT OF LEUKEMIAS, CANCERS, AUTOIMMUNE, SKIN, ALZHEIMER'S AND INFLAMMATORY BOWEL DISEASES AND VIRAL INFECTIONS, COMBINED WITH MYELOPOIESIS STIMULATING AGENTS” (Robin, Jean-Pierre, priority 2019, dated 2021).

Some results are limits rather than exact numbers.

In series [1] the test system is HL-60 cell line. The experiment in a line: Testing on HL-60 leukemia cell line (MTT cytotoxicity). Particulars: HL-60 cells, medium with 20% fetal bovine serum, preliminary screening, read-out: HL60 (APL) IC50. Type of series: cell-based, human. As to the method: (§1) Retinoates of harringtonines described in this invention were tested on K562 cell line which is derived from the pleural effusion of a person with chronic myelogenous leukemia (CML, bcr-abl positive) in terminal blast crises (Lozzio and Lozzio, Blood, 1975, p321). The cell line was purchased from ATCC (American Tissue Culture Collection) and grown in RPMI medium supplemented with 10% heat-inactivated fetal calf serum, 2 mmol/L glutamine, […] penicillin and […] streptomycin. All tested products were initially dissolved in 2N HCl (pH=2) (alkaloid base) or in aqueous solvent (salt) or in DMSO (retinoids), supplemented with ultrasound treatment during 1 h. Working concentrations were made by dilution in culture medium (pH 7). Cells in exponential growth phase were placed into 96-microwell plates in concentration 3x10^4/mL (total volume 200 µL/well) and incubated with drugs for 72 h at 37° C. in 5% CO2 humidified atmosphere. Following incubation, 28 µL of MTT 3-(4,5 dimethylthiazol-2-yl)-2,5 tetrazolium bromide] dye solution (Sigma, St. Louis, Mo.) was added to each well. During the following 6 h of incubation at 37° C., the purple formazan product was formed by conversion of the yellow MTT salt in the mitochondria of the viable cells. The resulting precipitate was dissolved in DMSO and the amount of converted MTT was quantified in an ELISA reader (MR 5000, Dynatech). Each product was tested in triplicate (3x8 wells). Every test contained at least one plate with HHT as control, added in the same concentration as the tested products.
Retinoates of harringtonines described in this invention were tested on HL-60 cell line, derived from acute promyelocytic leukemia (APL) cells. HL-60 is a promyelocytic cell line derived by S.J. Collins, et al. (Proc. Natl. Acad. Sci. USA 1978 p2458). Peripheral blood leukocytes were obtained by leukopheresis from a person with APL (Gallagher R, et al. Blood 1978, p713) The cell line was purchased from ATCC (American Tissue Culture Collection) and the base growth medium was also completed with fetal bovine serum but at a final concentration of 20%, otherwise the same method than the one of example 10 was used.
Preliminary screening using this tumor cell lines are gathered in table 1.

For series [2], the system named is MDA-MB-468. The experiment in a line: Testing on breast cancer cell lines, sulforhodamine B (SRB) cell viability assay. The class given is cell-based, human. Conditions: MDA-MB-468 breast cancer cells, preliminary screening, read-out: M DA-MB-468 (BC) IC50. As to the method: Operating Procedure were performed as described in the recent paper of Yakhni et al [Yakhni AM J CANCER RES 2019; 9(5) in press "Homoharringtonine, on approved anti-leukemia drug, suppresses triple negative breast cancer growth through a rapid reduction of anti-apoptotic protein abundance"]
The cell lines used in this study were MDA-MB-231 (ATCC® HTB-26™), MDA-MB-468 (ATCC® HTB-132™), MDA-MB-157 (ATCC® HTB-24™) and CAL-51. Those lines were chosen to represent the BRCA1/2 non-mutated TNBC transcriptomic subtypes, currently most in need of efficacious treatment due to lower sensibility of BRCA1 wild-type TNBC to the DNA-damaging chemotherapy (Masuda et al., Clin Cancer Res. 2013, p5533; Jiang et al., PLoS Med. 2016, pe1002193; Park et al. ESMO Open. 2018, pe000357). CAL-51 line represents the mesenchymal transcriptomic subtype whereas MDA-MB-157 and MDA-MB-231 represent the mesenchymal stem-like subtype (Lehmann et al. J Clin Invest. 2011, p2750). MDA-MB-468 was used as a model of aggressive, PTEN-negative TNBC, with hyperactivated EGFR signaling pathway due to EGFR amplification (Filmus et al., Biochem Biophys Res Commun. 1985, p898). MDA-MB-468 transcriptome classifies it into the basal-like 1 subtype (49). The MDA lines were purchased from the American Type Culture Collection (ATCC, Manassas, VA, USA). The CAL-51 was kindly provided by Dr Gerard Milano, from the Centre Antoine Lacassagne, Nice, France, where the line has been established (Gioanni et al., Br J Cancer 1990, p8). After initial expansion, the cell line stock vials were conserved, in liquid nitrogen, at the Biological Resource Center of Jean Perrin Comprehensive Cancer Center (biobank ID BB-0033-00075, Clermont-Ferrand, France). The MDA cell lines were cultured in the Leibovitz L-15 medium, whereas CAL-51 line was maintained in DMEM (both media from Invitrogen Life Technologies, Carlsbad, CA, USA). The media were supplemented with 10% heat-inactivated fetal bovine serum and […] gentamicin. CAL-51 line was kept at 37°C, in a humidified atmosphere with 5% CO2; the MDA lines were kept under the same conditions, however, without CO2, in a free gas exchange with atmospheric air. All cell lines were maintained in monolayer culture, in the sub-confluent status, with no more 30 passages of the cells thawed from the stock vial.
Homoharringtonine was supplied by LeukePharma Inc. (Houston, TX, USA) as water-soluble, crystalline tartaric acid salt. Initial stock solution of HHT-tartrate was prepared at 10 mM in sterile deionized water, aliquoted and kept at -80°C. For each experiment, a fresh HHT solution was prepared by dissolving the HHT stock in phosphate-buffered saline (PBS, GIBCO™, Invitrogen, Cergy-Pontoise, France).
Cell viability was assessed using the sulforhodamine B (SRB) assay (Sigma-Aldrich, St Louis, MO, USA) according to the method described by Vichai and Kirtikara (Nat Protoc. 2006, p1112). Cells were seeded in 96-well plates, at 5x10^3 or 1x10^3 cells/well (the MDA cell lines and CAL-51, respectively), left overnight to adhere and then treated with growing concentrations of HHT for 24h, 48h or 72h. After incubation with the drug, cells were washed twice with PBS and left for 72 h in the corresponding complete culture medium. Then the cells were fixed with trichloroacetic acid (final concentration 10%) at 4°C for 1 h, followed with plate washing with water five times, air drying and staining with 0.4% SRB dissolved in 1% acetic acid, at room temperature, for 30 min. The plates were subsequently washed four times with 1% acetic acid to remove unbound stain. To solubilize the protein-bound dye, 10 mM Tris base solution was added to each well. The cell viability, estimated through the present protein biomass, was determined by measuring optical density of the dye, using a spectrophotometer at wavelength of 540 nm (BMG Labtech, Ortenberg, Germany).
Preliminary screening using these tumor cell lines are gathered in table 1.

Series [3] has as its system K562 cell line. Briefly: Testing on K562 leukemia cell line (MTT cytotoxicity). Type of series: cell-based, human. Conditions: K562 cells, 72 h incubation, preliminary screening, read-out: K562 (CML) IC50. As to the method:
as §1

The nature of series [4]: Solubility determination in water. Type of series: physicochemical. Particulars: 25° C., semi-quantitative. Here is the method: Solubility in water at 25° C. was measured semi-quantitatively at a threshold of 5 g per 100 mL. All the homoharringtonine salts described in the below examples, unless otherwise stated, are soluble at this threshold. Homoharringtonine base itself is soluble at a threshold lower than 0.1 g per mL.

Turning to `CC1(C)CC=C(c2cnc3ccccc3c2)c2cc(C(=O)Nc3ccc(C(=O)O)cc3)ccc21.COC(=O)CC(O)(CCCC(C)(C)O)C(=O)O[C@@H]1C(OC)=C[C@]23CCCN2CCc2cc4c(cc2[C@H]13)OCO4` (stereo partly drawn) [Example 10, Butanedioic acid, 2-hydroxy-2-(4-hydroxy-4-methylpentyl)-, 1-[(1S,3aR,14bS)-1,5,6,8,9,14b-hexahydro-2-methoxy-4H-cyclopenta[c][1,3]dioxolo[4,5-h]pyrrolo[2,1-b][3]benzazepin-1-yl]4-methyl ester, 4-[[[5,6-Dihydro-5,5-dimethyl-8-(3-quinolinyl)-2-naphthalenyl]carbonyl]amino]benzoate], the values for the IC50 in series [1], in series [2] and in series [3] were below 100 nM, below 50 nM and below 50 nM, respectively.
Take `COC(=O)CC(O)(CCCC(C)(C)O)C(=O)O[C@@H]1C(OC)=C[C@]23CCCN2CCc2cc4c(cc2[C@H]13)OCO4.O=C(O)c1ccc2cc(-c3ccc(O)c(C45CC6CC(CC(C6)C4)C5)c3)ccc2c1` (stereo partly drawn) [Example 11, Butanedioic acid, 2-hydroxy-2-(4-hydroxy-4-methylpentyl)-, 1-[(1S,3aR,14bS)-1,5,6,8,9,14b-hexahydro-2-methoxy-4H-cyclopenta[a][1,3]dioxolo[4,5-h]pyrrolo[2,1-b][3]benzazepin-1-yl]4-methyl ester, 6-[3-(1-adamantyl)-4-hydroxyphenyl]-2-naphtalenecarboxylate]: the IC50 in series [1] is below 100 nM; in series [2] it was below 50 nM; in series [3], below 50 nM.
On to `COC(=O)CC(O)(CCCC(C)(C)O)C(=O)O[C@@H]1C(OC)=C[C@]23CCCN2CCc2cc4c(cc2[C@H]13)OCO4.O=C(O)c1ccc(-c2ccc3cc(O)c(C45CC6CC(CC(C6)C4)C5)cc3c2)cc1` (stereo partly drawn) [Example 12, Butanedioic acid, 2-hydroxy-2-(4-hydroxy-4-methylpentyl)-, 1-[(1S,3aR,14bS)-1,5,6,8,9,14b-hexahydro-2-methoxy-4H-cyclopenta[a][1,3]dioxolo[4,5-h]pyrrolo[2,1-b][3]benzazepin-1-yl]4-methyl ester, 4-(6-Hydroxy-7-tricyclo[3.3.1.1^3,7]dec-1-yl-2-naphthalenyl)benzoate], for which the values for the IC50 in series [1], in series [2] and in series [3] were below 100 nM, below 50 nM and below 50 nM, respectively.
On to `CC1(C)C(=O)C(C)(C)c2cc(C(=O)Nc3ccc(C(=O)O)cc3)ccc21.COC(=O)CC(O)(CCCC(C)(C)O)C(=O)O[C@@H]1C(OC)=C[C@]23CCCN2CCc2cc4c(cc2[C@H]13)OCO4` (stereo partly drawn) [Example 15, Butanedioic acid, 2-hydroxy-2-(4-hydroxy-4-methylpentyl)-, 1-[(1S,3aR,14bS)-1,5,6,8,9,14b-hexahydro-2-methoxy-4H-cyclopenta[a][1,3]dioxolo[4,5-h]pyrrolo[2,1-b][3]benzazepin-1-yl]4-methyl ester, 4-[[(2,3-Dihydro-1,1,3,3-tetramethyl-2-oxo-1H-inden-5-yl)carbonyl]amino]benzoate], for which the IC50 is below 100 nM in series [1], below 50 nM in series [2] and below 50 nM in series [3].
Consider `CC1(C)CCC(C)(C)c2cc(C(=O)Nc3ccc(C(=O)O)cc3)ccc21.COC(=O)C[C@](O)(CCCC(C)(C)O)C(=O)O[C@@H]1C(OC)=C[C@]23CCCN2CCc2cc4c(cc2[C@H]13)OCO4` [Example 23, homoharringtonine Am 580 salt], for which the IC50 in series [1] was below 100 nM; in series [2], below 50 nM; in series [3], below 50 nM.
In series [4], `COC(=O)C[C@](O)(CCCC(C)(C)O)C(=O)O[C@@H]1C(OC)=C[C@]23CCCN2CCc2cc4c(cc2[C@H]13)OCO4` [Homoharringtonine base, Homoharringtonine] had a solubility below 100 mg/mL.
As for OP5215 acitretinate [Example 25], the IC50 is below 50 nM in series [1], below 20 nM in series [2] and below 20 nM in series [3].
In the case of OP5215 adarotenoate [Example 28], the IC50 in series [1] is below 20 nM; in series [2], below 10 nM; in series [3], below 10 nM.
Take OP5215 bexarotenoate [Example 29]: the IC50 is below 20 nM in series [1], below 10 nM in series [2] and below 10 nM in series [3].
Turning to OP5215 tamibarotenoate [Example 26], the IC50 in series [1] is below 20 nM; in series [2], below 10 nM; in series [3] it was below 10 nM.
OP5215, Am 580 salt [Example 27]: the IC50 in series [1] was below 20 nM; in series [2], below 10 nM; in series [3], below 10 nM.
